Point of comparison: `COC(=O)CCCOc1ccc(C=O)cc1OC`, melting point 69 °C. Against it:
- O=C1Cc2cc(Cl)ccc2N1O — higher, 202 to 208 °C
- O=C1CCC2(CC1)OC(c1ccccc1)c1ccccc12 (centres undefined) — higher, 143 to 145 °C
- O=C1NN=C(c2ccc(C(F)(F)F)cc2)CC1C(F)(F)F (centres undefined) — higher, 135 to 136 °C
- O=C(NCCCCN1CCC(c2c[nH]c3ccccc23)CC1)c1ccc(-c2ccc(C(F)(F)F)cc2)c(CO)c1 — higher, 177 °C
- COC(=O)N1CCc2onc(O)c2CC1 — higher, 127 to 128 °C
- CC(C)[C@H](O)[C@@H](CCCCOc1cc(F)ccc1F)n1nc[nH]c1=S (racemic) — higher, 97 °C
- Cc1ccc(S(=O)(=O)OCC2C(CC(C)C3CCC4C(O)CCCC34C)N(C)OC2(C)C)cc1 (centres undefined) — higher, 114 to 115 °C
- COc1cc(F)c2c(c1)Oc1ccccc1S2(=O)=O — higher, 226 to 230 °C
- CC(C)(CNS(=O)(=O)C(F)(F)F)Cn1c(=O)c2cccc3ncc(c1=O)n32 — higher, 196 to 198 °C
- O=C1CC2(C(=O)N1)C(=O)N1CCCc3cccc2c31 (centres undefined) — higher, 253 to 255 °C
- COc1ccc(Nc2cc(Cl)nc(SC)n2)cc1 — higher, 128 to 131 °C
- CC1(C)OC(=O)C2=C(CCCCCC2)O1 — higher, 73.5 to 74.5 °C
- Oc1c(-c2cccnc2)cccc1-c1cccnc1 — higher, 211 °C
- C[C@]1(CN2CCN(C(=O)NC3CCCCC3)CC2)Cn2cc([N+](=O)[O-])nc2O1 — higher, 98 to 101 °C
- O[C@@H]1c2ccccc2CC[C@H]1N1CCC(O)(c2ccccc2)CC1 (relative stereo) — higher, 184 °C
- CC1(C)CC(C)(O)C2C3CCCCC3C2(C)C1 (centres undefined) — higher, 76.6 to 77.4 °C
- CCNC(=O)n1nc(Oc2ncc(C(F)(F)F)cc2Cl)c(CC)c1C — higher, 101 to 102 °C
- COC(=O)Cc1c(-c2ccc3c(c2)OCO3)c2ccccc2n(Cc2ccccc2OC)c1=O — higher, 71 to 72 °C
- NC(=O)c1cccc(OC2C(C(=O)O)=CC=CN2Cc2ccccc2Cl)c1 (centres undefined) — higher, 220 to 224 °C
- CC(=O)Nc1cc(F)ccc1SCC#N — higher, 113 to 115 °C
- CCCCCCCCCCCCCCCCCCOCC(COC(c1ccccc1)(c1ccccc1)c1ccccc1)OC(=O)N(C)C (centres undefined) — lower, 57.5 to 58 °C
- CC(C)(Oc1ccc(OCc2cnc(-c3ccc(C(F)(F)F)cc3)nc2C2CC2)c(F)c1)C(=O)O — higher, 178 °C
- O=C(NCc1cccnc1)c1ccc2n1Cc1ccccc1N(C(=O)CSc1ccc(Br)cc1)C2 — higher, 136 to 137 °C
- CSc1cc(C)nc(SC)c1NC(=O)CCCCCSc1nc2ccccc2o1 — higher, 120 to 121 °C
- COc1ccc(-c2cc(=O)c3c(OC)cc(OC)c(C4=CCN(C)CC4)c3o2)c(OC)c1OC — higher, 209 to 210 °C
- CCOC(=O)c1nc2cc(I)c(I)cc2[nH]c1=O — higher, 275 to 276 °C
- COC(=O)c1ccc(OCCNC(=O)C2Cc3ccccc3N2S(=O)(=O)c2ccc(-c3cc(C(F)(F)F)ccc3Cl)cc2)cc1C(F)(F)F (centres undefined) — higher, 79 °C
- CCc1nc2c(C)cc(C)nc2n1Cc1ccc2c(c1)c1ccccc1n2CCC#N — higher, 180 to 181 °C
- Fc1ccc(F)c2c(NCCc3ccc(Oc4ccnc(C(F)(F)F)c4Cl)cc3)ncnc12 — higher, 129 to 131 °C
- CCn1cc2c(n1)c(N)nc1cc(O)ccc12 — higher, 214 to 215 °C
- CCOC(=O)Cn1nc2ccc(Cl)nn2c1=O — higher, 114 to 115 °C
- CCCCCCc1ccc(-c2ccc(C3CCC(C#N)(CCCCCC)CC3)cc2)cc1 (centres undefined) — lower, 66 °C
- COc1ccc(-c2ccc(C(=O)c3ccccc3)cc2)cc1 — higher, 167 to 168 °C
- O=C1CCC(N2C(=O)c3cccc(OCc4cc5ccccc5o4)c3C2=O)C(=O)N1 (centres undefined) — higher, 234 to 236 °C
- Cc1nc2ccc(CN(CCO)c3ccc(C(=O)NCc4cccc(C#N)c4)cc3)cc2c(=O)[nH]1 — higher, 110 to 112 °C
- CCCC(=O)Nc1n[nH]c2cc(Cl)c(Br)cc12 — higher, 250 °C
- Cc1cc(=O)n2c3c(cc(C(O)(C(F)(F)Cl)C(F)(F)Cl)cc13)CC2 — higher, 256 to 257 °C
- N#CC(Sc1ccc(Cl)cc1)=C1SCCN1c1ccccc1 — higher, 144 to 146 °C

Source: a melting point compilation (Tetko et al.; mined from patent text by program, amines drawn as free bases though some values may be those of a salt)
